Experimental data taken from patent publication US20230097866A1, “BACTERIAL TOPOISOMERASE INHIBITORS DERIVED FROM ISOMANNIDE” (Ohio State Innovation Foundation, priority 2020, published 2023).
≈ marks a conversion by molar mass, not a printed value.

Experiments:
Assay type in all cases: cell-based
[1] = target: T1, Cav1.2 (L-type) Human Calcium Ion Channel (Homo sapiens, UniProt Q13936); assay: Cav1.2 (L-type) QPatch CiPA assay; conditions: mean, duplicate
T1 construct: expressed in transfected cells
Excerpt: Early drug discovery programs commonly assess hERG inhibition as the only indicator of potential cardiovascular safety concerns. Researchers have recently recommended a more rigorous evaluation of multiple cardiac ion channels to provide a more comprehensive cardiovascular risk assessment (Fermini, B., et al., A New Perspective in the Field of Cardiac Safety Testing through the Comprehensive In Vitro Proarrhythmia Assay Paradigm. J. Biomolec. Screening 2016, 21, 1-11). Given the promising initial results for 6, further evaluation was undertaken (in duplicate) in a Comprehensive in vitro Proarrhythmia Assay (CiPA) eight assay panel run on the QPatch HT (Sophion, Denmark) automated patch clamp system at three concentrations (3, 30, and 100 μM). All data were filtered for seal quality, seal drop, and current amplitude. A stock solution of the test compound at 30 mM concentration was prepared in DMSO.
The parameters measured were the maximum inward current evoked on stepping to 10 mV from the test pulse. The peak current amplitude was calculated before and after compound addition and the amount of block was assessed by dividing the Test compound current amplitude by the Control current amplitude. Control is the mean hCav1.2 current amplitude collected 15 seconds at the end of the control; Test Compound is the mean hCav1.2 current amplitude collected in the presence of test compound at each concentration. The positive control was nifedipine.

USA300 isolate of MRSA = assay: MIC, CLSI broth microdilution, USA300 MRSA; conditions: Staphylococcus aureus; CLSI broth microdilution; ciprofloxacin-resistant MRSA; read-out: MIC USA300
[2] = system: Streptococcus pneumoniae LSI-4234; assay: MIC panel (Laboratory Specialists, Inc.), S. pneumoniae LSI-4234; conditions: LSI4234, Cmpd. 6, penicillin-susceptible strain
[3] = system: Enterococcus faecium DRL-4193; assay: MIC panel (Laboratory Specialists, Inc.), E. faecium DRL-4193; conditions: DRL4193, Cmpd. 6, vancomycin-susceptible strain
[4] = system: Pseudomonas aeruginosa LSI-2946; assay: MIC panel (Laboratory Specialists, Inc.), P. aeruginosa; conditions: LSI2946, Cmpd. 6, CLSI broth microdilution

T1 sequence (Q13936 whole entry): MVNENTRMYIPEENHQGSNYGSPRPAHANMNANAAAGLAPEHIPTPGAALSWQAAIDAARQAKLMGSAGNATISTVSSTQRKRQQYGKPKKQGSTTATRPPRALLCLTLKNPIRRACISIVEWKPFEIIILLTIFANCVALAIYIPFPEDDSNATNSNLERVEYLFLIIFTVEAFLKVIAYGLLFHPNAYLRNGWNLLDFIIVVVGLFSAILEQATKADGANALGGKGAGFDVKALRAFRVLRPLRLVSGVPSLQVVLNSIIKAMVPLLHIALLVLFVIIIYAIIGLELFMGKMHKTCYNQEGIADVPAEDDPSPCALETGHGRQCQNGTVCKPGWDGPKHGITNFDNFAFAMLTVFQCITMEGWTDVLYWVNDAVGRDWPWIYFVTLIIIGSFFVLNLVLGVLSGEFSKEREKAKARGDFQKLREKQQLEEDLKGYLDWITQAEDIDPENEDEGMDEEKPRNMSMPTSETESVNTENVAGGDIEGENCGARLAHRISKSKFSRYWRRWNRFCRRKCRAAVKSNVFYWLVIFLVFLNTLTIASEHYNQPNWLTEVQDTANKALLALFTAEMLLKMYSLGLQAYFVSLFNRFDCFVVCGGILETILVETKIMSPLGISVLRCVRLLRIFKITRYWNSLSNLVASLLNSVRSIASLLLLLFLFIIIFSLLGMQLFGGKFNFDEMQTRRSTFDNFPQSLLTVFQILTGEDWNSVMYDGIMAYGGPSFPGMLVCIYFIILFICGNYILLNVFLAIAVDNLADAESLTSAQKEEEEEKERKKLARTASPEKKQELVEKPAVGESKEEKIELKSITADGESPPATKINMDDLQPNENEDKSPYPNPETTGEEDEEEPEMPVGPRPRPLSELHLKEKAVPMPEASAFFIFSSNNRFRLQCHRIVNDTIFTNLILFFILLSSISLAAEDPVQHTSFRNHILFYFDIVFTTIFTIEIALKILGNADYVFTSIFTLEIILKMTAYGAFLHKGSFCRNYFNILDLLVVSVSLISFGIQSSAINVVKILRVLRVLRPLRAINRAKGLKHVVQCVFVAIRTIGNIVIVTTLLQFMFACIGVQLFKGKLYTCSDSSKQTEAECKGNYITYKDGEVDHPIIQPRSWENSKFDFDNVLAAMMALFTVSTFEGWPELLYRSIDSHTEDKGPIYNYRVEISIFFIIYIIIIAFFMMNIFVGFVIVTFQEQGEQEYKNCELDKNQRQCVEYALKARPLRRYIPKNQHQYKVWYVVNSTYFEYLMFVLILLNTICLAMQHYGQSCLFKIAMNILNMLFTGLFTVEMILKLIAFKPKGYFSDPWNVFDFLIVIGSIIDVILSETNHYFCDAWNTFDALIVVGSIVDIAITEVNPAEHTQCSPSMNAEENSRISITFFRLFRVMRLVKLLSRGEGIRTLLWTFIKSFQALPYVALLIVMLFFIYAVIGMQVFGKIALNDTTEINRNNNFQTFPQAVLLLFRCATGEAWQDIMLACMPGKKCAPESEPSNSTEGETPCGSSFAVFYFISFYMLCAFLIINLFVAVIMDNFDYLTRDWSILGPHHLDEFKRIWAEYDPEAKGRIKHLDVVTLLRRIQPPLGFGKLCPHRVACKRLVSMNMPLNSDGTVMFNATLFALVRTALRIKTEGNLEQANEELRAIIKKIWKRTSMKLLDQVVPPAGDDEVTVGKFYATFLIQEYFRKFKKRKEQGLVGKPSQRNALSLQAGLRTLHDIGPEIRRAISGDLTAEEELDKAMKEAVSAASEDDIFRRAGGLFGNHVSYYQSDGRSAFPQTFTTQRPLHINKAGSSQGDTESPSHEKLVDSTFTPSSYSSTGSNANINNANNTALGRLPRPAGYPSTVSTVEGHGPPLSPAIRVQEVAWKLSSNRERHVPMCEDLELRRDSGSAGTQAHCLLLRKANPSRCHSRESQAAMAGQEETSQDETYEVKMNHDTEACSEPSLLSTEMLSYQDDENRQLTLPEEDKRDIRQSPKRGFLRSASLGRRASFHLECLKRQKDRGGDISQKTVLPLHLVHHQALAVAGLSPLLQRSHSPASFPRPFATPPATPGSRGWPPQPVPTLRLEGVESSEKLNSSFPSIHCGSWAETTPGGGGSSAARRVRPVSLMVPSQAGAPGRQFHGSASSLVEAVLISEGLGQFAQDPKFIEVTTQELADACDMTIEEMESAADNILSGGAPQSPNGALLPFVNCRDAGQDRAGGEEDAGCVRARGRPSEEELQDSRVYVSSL
T1 sequence (Q08289 whole entry partner): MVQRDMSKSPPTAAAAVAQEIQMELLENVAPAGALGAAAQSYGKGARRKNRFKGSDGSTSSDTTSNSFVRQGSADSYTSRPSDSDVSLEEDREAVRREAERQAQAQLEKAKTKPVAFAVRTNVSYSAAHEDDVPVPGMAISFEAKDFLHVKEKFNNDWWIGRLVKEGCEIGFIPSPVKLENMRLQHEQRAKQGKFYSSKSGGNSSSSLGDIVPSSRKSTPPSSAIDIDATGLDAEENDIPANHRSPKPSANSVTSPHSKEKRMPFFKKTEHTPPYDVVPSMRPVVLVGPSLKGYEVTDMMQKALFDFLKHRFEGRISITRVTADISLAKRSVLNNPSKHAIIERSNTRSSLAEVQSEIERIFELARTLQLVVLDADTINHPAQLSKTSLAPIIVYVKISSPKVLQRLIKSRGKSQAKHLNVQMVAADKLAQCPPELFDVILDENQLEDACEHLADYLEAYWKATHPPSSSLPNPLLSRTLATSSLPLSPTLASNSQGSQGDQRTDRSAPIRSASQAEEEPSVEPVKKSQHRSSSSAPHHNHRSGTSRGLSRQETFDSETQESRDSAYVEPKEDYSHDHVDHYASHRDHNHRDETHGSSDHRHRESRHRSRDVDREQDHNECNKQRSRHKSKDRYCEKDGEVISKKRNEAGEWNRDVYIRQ
T1 sequence (P54289 25-946 partner limits assumed): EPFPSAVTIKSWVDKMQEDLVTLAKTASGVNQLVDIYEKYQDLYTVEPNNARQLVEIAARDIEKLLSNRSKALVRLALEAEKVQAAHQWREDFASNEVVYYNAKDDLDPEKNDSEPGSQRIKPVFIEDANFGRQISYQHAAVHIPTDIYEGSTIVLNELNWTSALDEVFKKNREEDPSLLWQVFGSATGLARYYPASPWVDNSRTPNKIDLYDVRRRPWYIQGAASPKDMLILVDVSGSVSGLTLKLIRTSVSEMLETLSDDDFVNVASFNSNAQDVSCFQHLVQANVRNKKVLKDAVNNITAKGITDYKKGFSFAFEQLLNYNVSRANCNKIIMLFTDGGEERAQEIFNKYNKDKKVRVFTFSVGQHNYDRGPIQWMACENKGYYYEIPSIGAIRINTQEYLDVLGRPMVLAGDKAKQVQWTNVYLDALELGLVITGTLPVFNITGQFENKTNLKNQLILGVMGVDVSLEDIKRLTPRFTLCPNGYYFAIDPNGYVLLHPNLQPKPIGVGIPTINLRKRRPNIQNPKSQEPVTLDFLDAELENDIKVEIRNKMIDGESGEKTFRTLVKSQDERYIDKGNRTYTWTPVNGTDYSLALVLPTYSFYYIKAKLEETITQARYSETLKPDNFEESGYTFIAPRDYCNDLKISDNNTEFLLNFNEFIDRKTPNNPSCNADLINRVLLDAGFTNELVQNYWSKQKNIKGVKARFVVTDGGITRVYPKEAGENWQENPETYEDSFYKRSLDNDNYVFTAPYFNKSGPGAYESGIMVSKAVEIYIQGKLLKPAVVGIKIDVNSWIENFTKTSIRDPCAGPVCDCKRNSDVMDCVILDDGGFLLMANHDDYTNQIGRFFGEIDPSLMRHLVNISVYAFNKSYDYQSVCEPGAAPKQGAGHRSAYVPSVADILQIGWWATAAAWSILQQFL
T1 sequence (P54289 947-1103 partner limits assumed): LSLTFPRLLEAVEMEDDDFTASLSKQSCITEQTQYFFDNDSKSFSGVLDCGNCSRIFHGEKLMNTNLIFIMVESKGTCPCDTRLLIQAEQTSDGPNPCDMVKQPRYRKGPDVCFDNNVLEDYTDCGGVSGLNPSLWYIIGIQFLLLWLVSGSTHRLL

COc1ccc2ncc(F)c(CC[C@@]3(O)CO[C@@H]4[C@@H](NCc5cc6c(cn5)OCCO6)CO[C@@H]43)c2n1 [Compound 6, (3R, 3aS,6S,6aR)-6-(((2,3-dihydro-[1,4]dioxino[2,36-c]pyridin-7-yl)methyl)amnino)-3-(2-(3-fluoro-6-methoxy-1,5-naphthyridin-4-yl)ethyl)hexahydrofuro[3,2-b]furan-3-ol]
% Inhibition Cav1.2 (peak current) ([1]; 3 μM): 4.7%
% Inhibition Cav1.2 (peak current) ([1]; 30 μM): 23.3%
% Inhibition Cav1.2 (peak current) ([1]; 100 μM): 24.9%
MIC (USA300 isolate of MRSA): 2 µg/mL (≈ 4.01 µM)
MIC [2]: ≤ 0.12 µg/mL
MIC [3]: 2 µg/mL (≈ 4.01 µM)
MIC [4]: ≤ 0.12 µg/mL
